Assay results from patent publication US20050256003A1, “Novel herbicides” (priority 2002, published 2005).

Tests used:
Assay type in all cases: in vivo
[1] = test system: selected test plants; assay: Post-emergence action in a different test arrangement (Table B3); parameters: key to Post-emergence action (different test arrangement), Nasturtium / Post-emergence action (different test arrangement), Stellaria / Post-emergence action (different test arrangement), Solanum: 10=total damage; 0=no action; Ratings of from 10 to 7 (especially from 10 to 8) indicate good to very good herbicidal action; conditions: 250 g a.i./ha
[2] = test system: monocotyledonous and dicotyledonous test plants; assay: Post-emergence herbicidal action; parameters: key: 10=total damage; 0=no action; Ratings of from 10 to 7 (especially from 10 to 8) indicate good to very good herbicidal action; conditions: 250 g a.i./ha, about 18 days, rating 0-10
Summary of the method: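 Plants at the 4- to 6-leaf stage in greenhouse soil sprayed with a suspension from a 25% wettable powder or an emulsion from a 25% emulsifiable concentrate at 125 g or 250 g a.i./ha (500 litres water/ha). Damage rated after about 18 days on a […] scale (10=total damage, 0=no action).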

[3] = test system: monocotyledonous and dicotyledonous test plants; assay: Herbicidal action prior to emergence of the plants (pre-emergence action); parameters: key: 10=total damage; 0=no action; Ratings of from 10 to 7 (especially from 10 to 8) indicate good to very good herbicidal action; conditions: 250 g a.i./ha, pre-emergence spray, evaluated after 3 weeks, scale 10=total damage, 0=no action
Description: Herbicidal Action Prior to Emergence of the Plants (Pre-Emergence Action)
Monocotyledonous and dicotyledonous test plants are sown in standard soil in plastic pots Immediately after sowing, the test compounds, in the form of an aqueous suspension (prepared from a 25% wettable powder (Example F3, b) according to WO 97/34485) or in the form of an emulsion (prepared from a 25% emulsifiable concentrate (Example F1, c)), are applied by spraying in a concentration corresponding to 125 g or 250 g of active ingredient/ha (500 litres of water/ha). The test plants are then grown in a greenhouse under optimum conditions. After a test duration of 3 weeks, the test is evaluated in accordance with a scale of nine ratings (10=total damage, 0=no action). Ratings of from 10 to 7 (especially from 10 to 8) indicate good to very good herbicidal action.

Structure (SMILES) | Post-emergence action (different test arrangement), Amaranthus [1] | Post-emergence action (different test arrangement), Nasturtium [1] | Post-emergence action (different test arrangement), Solanum [1] | Post-emergence action (different test arrangement), Stellaria [1] | Post-emergence action, Amaranthus [2] | Post-emergence action, Chenopodium [2] | Post-emergence action, Echinochloa [2] | Post-emergence action, Euphorbia [2] | Post-emergence action, Ipomea [2] | Post-emergence action, Sinapis [2] | Post-emergence action, Stellaria [2] | Post-emergence action, Xanthium [2] | Pre-emergence action: Abutilon (rating) [3] | Pre-emergence action: Amaranthus (rating) [3] | Pre-emergence action: Chenopodium (rating) [3] | Pre-emergence action: Cyperus (rating) [3] | Pre-emergence action: Echinochloa (rating) [3] | Pre-emergence action: Panicum (rating) [3] | Pre-emergence action: Scirpus (rating) [3] | Pre-emergence action: Sida (rating) [3]
CC1CCN(Cc2nc(C(F)(F)F)ccc2C(=O)C2=C(O)CCCC2=O)C1=O (stereo not shown) [Compound A1.222] | 9 | 10 | 9 | 9 |  |  |  |  |  |  |  |  |  |  |  |  |  |  |  | 
COc1nn(Cc2nc(C(F)(F)F)ccc2C(=O)C2=C(O)CCCC2=O)c(=O)n1C [Compound A1.025] | 9 | 9 | 9 | 9 |  |  |  |  |  |  |  |  |  |  |  |  |  |  |  | 
O=C1CCCC(O)=C1C(=O)c1ccc(C(F)(F)F)nc1CN1CCCC1=O [Compound A1.219] | 9 | 10 | 9 | 10 |  |  |  |  |  |  |  |  |  |  |  |  |  |  |  | 
Cn1ncc(C(=O)c2ccc(C(F)(F)F)nc2CN2CN(c3ccc(Cl)cc3)CC2=O)c1O [Compound B1.238] | 9 | 8 | 9 | 7 |  |  |  |  |  |  |  |  |  |  |  |  |  |  |  | 
O=C1CCCC(O)=C1C(=O)c1ccc(C(F)(F)F)nc1CN1CN(c2ccc(Cl)cc2)CC1=O [Compound A1.237] | 9 | 9 | 10 | 7 |  |  |  |  |  |  |  |  |  |  |  |  |  |  |  | 
CN1CCN(Cc2nc(C(F)(F)F)ccc2C(=O)c2cnn(C)c2O)C1=O [Compound B1.211] | 9 | 10 | 9 | 8 |  |  |  |  |  |  |  |  |  |  |  |  |  |  |  | 
Cc1nn(Cc2nc(C(F)(F)F)ccc2C(=O)C2=C(O)CCCC2=O)c(=O)s1 [Compound A1.079] |  |  |  |  | 9 | 9 | 7 | 8 | 8 | 9 | 9 | 7 | 10 | 4 | 8 | 8 | 5 | 9 | 10 | 10
Cc1nn(Cc2nc(C(F)(F)F)ccc2C(=O)c2cnn(C)c2O)c(=O)o1 [Compound B1.008] |  |  |  |  | 9 | 10 | 9 | 8 | 9 | 7 | 8 |  | 10 | 10 | 10 | 9 | 9 | 10 | 10 | 9
Cn1ncn(Cc2nc(C(F)(F)F)ccc2C(=O)C2=C(O)CCCC2=O)c1=O [Compound A1.073] |  |  |  |  | 10 | 10 | 9 | 9 | 10 | 10 | 10 | 9 | 10 | 10 | 10 | 10 | 3 | 10 | 10 | 9
Cn1ncc(C(=O)c2ccc(C(F)(F)F)nc2Cn2cnn(C)c2=O)c1O [Compound B1.080] |  |  |  |  | 10 | 10 | 9 | 10 | 10 | 10 | 10 | 8 | 8 | 0 | 10 | 9 | 10 | 10 | 9 | 0
COc1nn(Cc2nc(C(F)(F)F)ccc2C(=O)c2cnn(C)c2O)c(=O)s1 [Compound B1.096] |  |  |  |  | 7 | 10 | 6 | 7 | 7 | 9 | 8 | 8 | 10 | 10 | 10 | 7 |  | 7 | 7 | 7
Cn1ncn(Cc2nc(C(F)(F)F)ccc2C(=O)C2=C(O)C(C)(C)C(=O)C(C)(C)C2=O)c1=O [Compound A8.080] |  |  |  |  | 9 | 10 | 9 | 9 | 10 | 10 | 10 | 8 | 10 | 0 | 10 | 0 | 10 | 9 | 8 | 9
